Test results reported in patent publication US20240415828A1, “TLR7 AGONIST AND COMBINATIONS FOR CANCER TREATMENT” (BIONTECH SE, priority 2021, published 2024).

What was measured:
BALB/c mice = experiment: In vivo cytokine release in BALB/c mice (IFNa ELISA); parameters: species or system mouse; conditions: 3 mg/kg retro-orbital vs 5, 10, 15 mg/kg; blood 1 h after application
Protocol: FIG. 2. In vivo cytokine release in BALB/c mice upon administration of BNT411. Female BALB/c mice were retro-orbitally administered with doses of 3, 5, 10, and 15 mg/kg BNT411. Blood samples were drawn 1 h after compound application and analyzed with mouse IFNa ELISA.
(§1) Serum levels of IFNα were measured by sandwich ELISA (Pbl Assay Systems) according to manufacturer's instructions.
Female BALB/c mice were retro-orbitally administered with doses of 3, 5, 10, and 15 mg/kg BNT411. Blood samples were drawn 1 h after compound application and analyzed with mouse IFNa ELISA.

[1] = system: CT26 colon carcinoma cells; experiment: CT26 tumor model, BNT411 alone and with oxaliplatin (Example 4); format: in vivo, mouse
Protocol: FIG. 5. Anti-tumoral efficacy of BNT411 alone and in combination with oxaliplatin in a tumor mouse model. Mice (n=12 or 13 per group) subcutaneously inoculated with 2.5×10^5 CT26 colon carcinoma cells were used as tumor mouse model. Oxaliplatin was administered intraperitoneally (i.p.) (5 mg/kg, four times with 4 to 5 days between injections). BNT411 was administered i.v. at a dose level of 3 mg/kg eight times with 2 to 5 days interval between injections and at least 2 days after oxaliplatin therapy. Anti-tumor efficacy was evaluated by group mean tumor volumes in test versus control groups (vehicle only) on days 33 and 42 (at least 50% of test and control animals alive). IFNα levels in plasma were analyzed 1 h after first BNT411 administration and gp70+ T-cell populations in blood were analyzed on days 34 and 41. (A) Dosing schedule. (B) Graph showing the tumor volumes vs. days after inoculation. Group mean tumor volumes (±SEM (standard error of the mean)) for all live animals are shown. Treatment groups included nine to ten mice. Additionally, tumor volumes of animals that were euthanized due to tumor load were carried forward for as long as they were larger than the group median tumor volume (last observation carried forward (LOCF) values). Curves were discontinued for groups with less than 50% animals alive. (C) Graph showing IFNα serum level 60 min after first injection for the 4 groups (control (vehicle); BNT411 alone; oxaliplatin alone; BNT411 and oxaliplatin). IFNα levels in control and test groups are shown by vertical bars (±SEM), Statistical significance between groups is indicated by horizontal lines. P-value summary: ****=p≤0.0001; ***=p≤0.001; **=p≤0.01, […].
as §1
BALB/c mice were inoculated s.c. with 2.5×10^5−5×10^5 CT26-WT into the flank, respectively. Once tumors reached palpable sizes, mice were randomly divided into treatment and control groups. Tumor volume was measured unblinded with a caliper and calculated using the formula (a×b^2)/2 (a being the largest and b being the smallest diameter of the tumor). Tumor growth was documented as mean tumor size with standard error disregarding single distant outliers. Treatment was initiated after 7-10 d with tumors having reached an average volume of about 10 mm^3. […]
Oxaliplatin was administered intraperitoneally (i.p.) (5 mg/kg, four times with 4 to 5 days between injections). […] Anti-tumor efficacy was evaluated by group mean tumor volumes in test versus control groups (vehicle only) on study days 33 and 42, (at least 50% of test and control animals alive). IFNα levels in plasma were analyzed 1 h after first BNT411 administration and gp70+ T-cell populations in blood on study days 34 and 41.

`COCCc1nc2c(N)nc3ccccc3c2n1CCCCN(C(C)=O)C1CCOCC1` [BNT411] was tested, and the IFNa secretion (BALB/c mice) was “stronger IFNa secretion as compared to higher BNT411 doses”, the “anti-tumor efficacy, T/C value” ([1]; BNT411 3 mg/kg i.v. eight times, oxaliplatin 5 mg/kg i.p. four times, group mean tumor volumes test vs control) was 65.8% and the “effect on tumor growth (conclusion)” value ([1]; mouse, in vivo) was “anti-tumor activity”. The “IFNα levels, BNT411 monotherapy group vs combination of BNT411 and oxaliplatin” value ([1]; two-way ANOVA) was “statistically significantly higher”.
